≈ marks a conversion by molar mass, not a printed value. Where “and” joins values, the source holds several entries; their conditions need not be identical. Identical values can stand only once.
Assays:
H9c2 cardiomyocytes = experiment: Cell viability assay (MTT); assay type: cell-based, rat
From the text: (§1) Rat cardiomyocyte H9c2 cells were kindly provided by Prof. Dr. Gunhild von Amsberg from the Martini-Klinik Prostate Cancer Center, University Hospital Hamburg-Eppendorf, Hamburg, Germany. The human HaCaT keratinocyte cell line was kindly provided by Prof. N. Fusenig (Cancer Research Centre, Heidelberg, Germany). Non-cancerous human breast epithelial MCF-10A cells were kindly provided by Dr. Irina Zhitnyak (N. N. Blokhin National Medical Research Center of Oncology, Moscow, Russia). Human breast cancer MCF-7 HTB-22 and MDA-MB-231 cells were obtained from the ATTC (Manassas, VA, USA).
(§2) H9c2 and HaCaT cells were cultured in DMEM with 10% fetal bovine serum and 1% penicillin/streptomycin (BioloT, St. Petersburg, Russia). MCF-7 and MDA-MB-231 cells were cultured in MEM (BioloT, St. Petersburg, Russia) with 10% fetal bovine serum (FBS) and 1% penicillin/streptomycin (BioloT, St. Petersburg, Russia). MCF 10A cells were cultured in DMEM F12 medium (BioloT, St. Petersburg, Russia) supplemented with 20% FBS, 20 ng/mL hrEGF (Sci-Store, Moscow, Russia), and 1% penicillin/streptomycin (BioloT, St. Petersburg, Russia). All cells were cultured at 37 °C in a humidified atmosphere containing 5% CO2.
(§3) H9c2 cells were seeded at a concentration of 3 × 10^3 cells/well. MCF-10A, MCF-7, and MDA-MB-231 cells were seeded at 5 × 10^3 cells/well, and HaCaT cells were seeded at 1 × 10^4 cells/well. The experiments were initiated after 24 h.
(§4) Compounds at concentrations up to 100 µM were added to the wells for 24h or 48 h, and the viability of the cells was measured using an MTT (3-(4,5-dimethylthiazol-2-yl)-2,5-diphenyltetrazolium bromide) assay, which was performed according to the manufacturer’s instructions (Sigma-Aldrich, Munich, Germany). […] DMSO was used as a control. The results are presented as percentages of the control data.

[1] = system: Staphylococcus aureus ATCC 21027; experiment: Biofilm formation assay (MTT); assay type: cell-based; details: S. aureus, 18 h
Method: (§5) The Gram-positive bacterial Staphylococcus aureus ATCC 21027, Gram-negative bacterial Escherichia coli VKPM (B-7935), and yeast-like fungal Candida albicans KMM 455 strains were fermented on solid medium Mueller Hinton broth with agar (16.0 g/L) in a Petri dish at 37 °C for 24 h. The antimicrobial activity of the compound was tested at concentrations ranging from 100 µM and lower. The effect of the compound on bacterial growth was estimated as described by. Gentamicin and amphotericin B were used as positive controls against S. aureus, E. coli, and C. albicans, and a 1% dimethyl sulfoxide (DMSO) solution in PBS was used as a negative control. The optical density of the bacterial suspension after 18 h was measured at λ = 620 nm. The effect of the compound on biofilm formation for 18 h was tested using MTT reagent (Sigma-Aldrich, St. Louis, MO, USA) in accordance with. The optical density of the obtained solution was measured at λ = 570 nm. A Multiskan FS spectrophotometer (Thermo Scientific Inc., Beverly, MA, USA) was used for both assays. The results were calculated as percentages of the control data and presented as minimal concentrations reduced by 50% of growth or biofilm formation (MIC50).

Candida albicans KMM 455 [2] = experiment: Biofilm formation assay (MTT); assay type: cell-based; details: C. albicans, 18 h
Method: as §5

[3] = system: Escherichia coli VKPM (B-7935); experiment: Biofilm formation assay (MTT); assay type: cell-based; details: E. coli, 18 h
Method: as §5

[4] = system: Staphylococcus aureus ATCC 21027; experiment: Antimicrobial assay, growth inhibition (optical density); assay type: cell-based; details: S. aureus, 18 h
Method: as §5

Candida albicans KMM 455 [5] = experiment: as above; assay type: cell-based; details: Candida albicans, KMM455, 18 h, C. albicans, 18 h
Method: as §5

[6] = system: Escherichia coli VKPM (B-7935); experiment: as above; assay type: cell-based; details: E. coli, 18 h
Method: as §5

[7] = system: MDA-MB-231 breast cancer cells; experiment: Cell viability assay (MTT); assay type: cell-based, human
From the text: as §1, §2, §3, §4

[8] = system: MCF-7 breast cancer cells; experiment: Cell viability assay (MTT); assay type: cell-based, human
From the text: as §1, §2, §3, §4

HaCaT keratinocytes = experiment: Cell viability assay (MTT); assay type: cell-based, human
From the text: as §1, §2, §3, §4

[9] = system: MCF-10A breast epithelial cells; experiment: Cell viability assay (MTT); assay type: cell-based, human; details: MCF10A
From the text: as §1, §2, §3, §4

For Cc1c(C)c(O)c2c(c1C)C(C)(O)OC2=O (centres unmarked) [Compound 3, sclerolide], the cell viability (H9c2 cardiomyocytes; H9c2, 24 h, 1.0 µM) was 81.1 ± 3.2 % of control, the cell viability (H9c2 cardiomyocytes; H9c2, 24 h, 10.0 µM) was 88.7 ± 4.4 % of control and the cell viability (H9c2 cardiomyocytes; H9c2, 24 h, 100.0 µM) was 74.6 ± 8.3 % of control. The cell viability (H9c2 cardiomyocytes; H9c2, 48 h, 1.0 µM) was 102.0 ± 5.5 % of control, the cell viability (H9c2 cardiomyocytes; H9c2, 48 h, 10.0 µM) was 102.7 ± 6.7 % of control and the cell viability (H9c2 cardiomyocytes; H9c2, 48 h, 100.0 µM) was 62.5 ± 4.6 % of control. The decrease of viability (H9c2 cardiomyocytes; H9c2, at 100 µM, range given for H9c2 and HaCaT together) was 30.0–37.5%, the “Biofilm formation, MIC50” value [1] was 31.14 µM and 31.14 ± 2.34 µM and the “Biofilm formation, MIC50” value (Candida albicans KMM 455 [2]) was over 100 µM. The “Biofilm formation, MIC50” value [3] was 43.51 µM and 43.51 ± 4.03 µM, the “Growth inhibition, MIC50” value [4] was 20.34 ± 2.58 µM and the MIC50 ([4]; Staphylococcus aureus, ATCC21027, 18 h) was 20.3 µM (≈ 4.52 µg/mL). The MIC50 (Candida albicans KMM 455 [5]) was over 100 µM, the “Growth inhibition, MIC50” value [6] was 21.07 ± 2.11 µM and the MIC50 ([6]; Escherichia coli) was 21.1 µM (≈ 4.68 µg/mL). For the same molecule, the cell viability ([7]; MDA-MB-231, 24 h, 1.0 µM) was 99.8 ± 1.3 % of control, the cell viability ([7]; MDA-MB-231, 24 h, 10.0 µM) was 100.6 ± 5.7 % of control and the cell viability ([7]; MDA-MB-231, 24 h, 100.0 µM) was 68.6 ± 8.3 % of control. For the same molecule, the cell viability ([7]; MDA-MB-231, 48 h, 1.0 µM) was 107.6 ± 2.8 % of control, the cell viability ([7]; MDA-MB-231, 48 h, 10.0 µM) was 99.0 ± 5.1 % of control and the cell viability ([7]; MDA-MB-231, 48 h, 100.0 µM) was 60.9 ± 3.6 % of control. For the same molecule, the cell viability ([8]; MCF-7, 24 h, 1.0 µM) was 107.2 ± 8.9 % of control, the cell viability ([8]; MCF-7, 24 h, 10.0 µM) was 95.6 ± 2.4 % of control and the cell viability ([8]; MCF-7, 24 h, 100.0 µM) was 70.2 ±5.5 % of control. The cell viability ([8]; MCF-7, 48 h, 1.0 µM) was 83.8 ± 3.1 % of control, the cell viability ([8]; MCF-7, 48 h, 10.0 µM) was 76.0 ± 2.6 % of control and the cell viability ([8]; MCF-7, 48 h, 100.0 µM) was 55.1 ± 1.0 % of control. For the same molecule, the cell viability (HaCaT keratinocytes; 24 h, 1.0 µM) was 94.4 ± 5.9 % of control, the cell viability (HaCaT keratinocytes; 24 h, 10.0 µM) was 100.2 ± 3.0 % of control and the cell viability (HaCaT keratinocytes; 24 h, 100.0 µM) was 63.0 ± 8.6 % of control. For the same molecule, the cell viability (HaCaT keratinocytes; 48 h, 1.0 µM) was 96.8 ± 1.0 % of control, the cell viability (HaCaT keratinocytes; 48 h, 10.0 µM) was 96.6 ± 4.1 % of control and the cell viability (HaCaT keratinocytes; 48 h, 100.0 µM) was 69.4 ± 3.5 % of control. For the same molecule, the decrease of viability (HaCaT keratinocytes; at 100 µM, range given for H9c2 and HaCaT together) was 30.0–37.5%, the IC50 ([9]; Homo sapiens, MCF-10A, time not stated, read-out: half-maximal concentration (IC50), viability) was about 100 µM and the cell viability ([9]; 24 h, 1.0 µM) was 101.7 ± 1.3 % of control. The cell viability ([9]; 24 h, 10.0 µM) was 92.2 ± 3.5 % of control, the cell viability ([9]; 24 h, 100.0 µM) was 62.5 ± 2.2 % of control and the cell viability ([9]; 48 h, 1.0 µM) was 101.6 ± 5.1 % of control. For the same molecule, the cell viability ([9]; 48 h, 10.0 µM) was 74.4 ± 2.4 % of control and the cell viability ([9]; 48 h, 100.0 µM) was 47.5 ± 7.0 % of control.

Source: publication PMC12471299, “Secondary Metabolites of the Marine Sponge-Derived Fungus Aspergillus subramanianii 1901NT-1.40.2 and Their Antimicrobial and Anticancer Activities” (Marine Drugs, 2025)
